Data as given in patent publication US20250288589A1, “PYRIDOPYRIMIDINES AND METHODS OF THEIR USE” (Kineta, Inc., priority 2021, published 2025).
pIC50: −log10 of the molar value.

What was measured:
[1] = tested on: PIKFYVE TDP-43 yeast strain; assay: Propidium iodide viability assay in PIKFYVE TDP-43 yeast strain; format: cell-based; settings: for pIC50: Saccharomyces cerevisiae, reduction in PI-positive cells, 24 hours, 15 μM to 0.11 μM, plotted in FIG. 7
From the text: Generation of TDP-43 yeast model expressing human PIKfyve. Human PIKFYVE (“entry clone”) was cloned into pAG416GPDccdB (“destination vector”) according to standard Gateway cloning protocols (Invitrogen, Life Technologies). The resulting pAG416GPD-PIKFYVE plasmids were amplified in E. coli and plasmid identity confirmed by restriction digest and Sanger sequencing. Lithium acetate/polyethylene glycol-based transformation was used to introduce the above PIKFYVE plasmid into a BY4741 yeast strain auxotrophic for the ura3 gene and deleted for two transcription factors that regulate the xenobiotic efflux pumps, a major efflux pump, and FAB1, the yeast ortholog of PIKFYVE (MATa, snq2::KILeu2; pdr3::Klura3;pdr1::NATMX; fab1::G418^R, his3;leu2;ura3;met15;LYS2+) (FIG. 2).
Transformed yeast were plated on solid agar plates with complete synthetic media lacking uracil (CSM-ura) and containing 2% glucose. Individual colonies harboring the control or PIKFYVE TDP-43 plasmids were recovered. A plasmid containing wild-type TDP-43 under the transcriptional control of the GAL1 promoter and containing the hygromycin-resistance gene as a selectable marker was transformed into the fab1::G418^R pAG416GPD-PIKFYVE yeast strain (FIG. 1). Transformed yeast were plated on CSM-ura containing 2% glucose and […] after overnight recovery in media lacking antibiotic. Multiple independent isolates were further evaluated for cytotoxicity and TDP-43 expression levels.
Viability Assay. A control yeast strain with the wild-type yeast FAB1 gene and TDP-43 (“FAB1 TDP-43”, carries empty pAG416 plasmid), and the “PIKFYVE TDP-43” yeast strain, were assessed for toxicity using a propidium iodide viability assay. Both yeast strains were transferred from solid CSM-ura/2% glucose agar plates into 3 mL of liquid CSM-ura/2% glucose media for 6-8 hours at 30° C. with aeration. Yeast cultures were then diluted to an optical density at 600 nm wavelength (OD600) of 0.005 in 3 mL of CSM-ura/2% raffinose and grown overnight at 30° C. with aeration to an OD600 of 0.3-0.8. Log-phase overnight cultures were diluted to OD600 of 0.005 in CSM-ura containing either 2% raffinose or galactose and 150 μL dispensed into each well of a flat bottom 96-well plates. Compounds formulated in 100% dimethyl sulfoxide (DMSO) were serially diluted in DMSO and 1.5 μL diluted compound transferred to the 96-well plates using a multichannel pipet. Wells containing DMSO alone were also evaluated as controls for compound effects. Tested concentrations ranged from 15 μM to 0.11 μM. Cultures were immediately mixed to ensure compound distribution and covered plates incubated at 30° C. for 24 hours in a stationary, humified incubator.
Upon the completion of incubation, cultures were assayed for viability using propidium iodide (PI) to stain for dead/dying cells. A working solution of PI was made where, for each plate, 1 μL of 10 mM PI was added to 10 mL of CSM-ura (raffinose or galactose). The final PI solution (50 μL/well) was dispensed into each well of a new round bottom 96-well plate. The overnight 96-well assay plate was then mixed with a multichannel pipet and 50 μL transferred to the PI-containing plate. This plate was then incubated for 30 minutes at 30° C. in the dark. A benchtop flow cytometer (Miltenyi MACSquant) was then used to assess red fluorescence (B2 channel), forward scatter, and side scatter (with following settings: gentle mix, high flow rate, fast measurement, 10,000 events). Intensity histograms were then gated for “PI-positive” or “PI-negative” using the raffinose and galactose cultures treated with DMSO as controls. The DMSO controls for raffinose or galactose-containing cultures were used to determine the window of increased cell death and this difference set to 100. All compounds were similarly gated and then compared to this maximal window to establish the percent reduction in PI-positive cells.

[2] = molecular target: T1, full-length human PIKFYVE (Homo sapiens, UniProt Q9Y2I7, L932S/Q1183K/Q995L/S1033A/S696N/T998S); assay: PIKfyve biochemical assay (ADP-Glo Kinase assay, Carna Biosciences); settings: GST-PIKFYVE, 10 μM to 3 nM in duplicate, read-out: hPIKfyve IC50
T1 construct: A full-length human PIKFYVE [1-2098(end) amino acids and S696N, L932S, Q995L, T998S, S1033A and Q1183K; purchased Carna Biosciences; host or cells: baculovirus expression system
T1 sequence (Q9Y2I7 whole entry S696N/L932S/Q995L/T998S/S1033A/Q1183K): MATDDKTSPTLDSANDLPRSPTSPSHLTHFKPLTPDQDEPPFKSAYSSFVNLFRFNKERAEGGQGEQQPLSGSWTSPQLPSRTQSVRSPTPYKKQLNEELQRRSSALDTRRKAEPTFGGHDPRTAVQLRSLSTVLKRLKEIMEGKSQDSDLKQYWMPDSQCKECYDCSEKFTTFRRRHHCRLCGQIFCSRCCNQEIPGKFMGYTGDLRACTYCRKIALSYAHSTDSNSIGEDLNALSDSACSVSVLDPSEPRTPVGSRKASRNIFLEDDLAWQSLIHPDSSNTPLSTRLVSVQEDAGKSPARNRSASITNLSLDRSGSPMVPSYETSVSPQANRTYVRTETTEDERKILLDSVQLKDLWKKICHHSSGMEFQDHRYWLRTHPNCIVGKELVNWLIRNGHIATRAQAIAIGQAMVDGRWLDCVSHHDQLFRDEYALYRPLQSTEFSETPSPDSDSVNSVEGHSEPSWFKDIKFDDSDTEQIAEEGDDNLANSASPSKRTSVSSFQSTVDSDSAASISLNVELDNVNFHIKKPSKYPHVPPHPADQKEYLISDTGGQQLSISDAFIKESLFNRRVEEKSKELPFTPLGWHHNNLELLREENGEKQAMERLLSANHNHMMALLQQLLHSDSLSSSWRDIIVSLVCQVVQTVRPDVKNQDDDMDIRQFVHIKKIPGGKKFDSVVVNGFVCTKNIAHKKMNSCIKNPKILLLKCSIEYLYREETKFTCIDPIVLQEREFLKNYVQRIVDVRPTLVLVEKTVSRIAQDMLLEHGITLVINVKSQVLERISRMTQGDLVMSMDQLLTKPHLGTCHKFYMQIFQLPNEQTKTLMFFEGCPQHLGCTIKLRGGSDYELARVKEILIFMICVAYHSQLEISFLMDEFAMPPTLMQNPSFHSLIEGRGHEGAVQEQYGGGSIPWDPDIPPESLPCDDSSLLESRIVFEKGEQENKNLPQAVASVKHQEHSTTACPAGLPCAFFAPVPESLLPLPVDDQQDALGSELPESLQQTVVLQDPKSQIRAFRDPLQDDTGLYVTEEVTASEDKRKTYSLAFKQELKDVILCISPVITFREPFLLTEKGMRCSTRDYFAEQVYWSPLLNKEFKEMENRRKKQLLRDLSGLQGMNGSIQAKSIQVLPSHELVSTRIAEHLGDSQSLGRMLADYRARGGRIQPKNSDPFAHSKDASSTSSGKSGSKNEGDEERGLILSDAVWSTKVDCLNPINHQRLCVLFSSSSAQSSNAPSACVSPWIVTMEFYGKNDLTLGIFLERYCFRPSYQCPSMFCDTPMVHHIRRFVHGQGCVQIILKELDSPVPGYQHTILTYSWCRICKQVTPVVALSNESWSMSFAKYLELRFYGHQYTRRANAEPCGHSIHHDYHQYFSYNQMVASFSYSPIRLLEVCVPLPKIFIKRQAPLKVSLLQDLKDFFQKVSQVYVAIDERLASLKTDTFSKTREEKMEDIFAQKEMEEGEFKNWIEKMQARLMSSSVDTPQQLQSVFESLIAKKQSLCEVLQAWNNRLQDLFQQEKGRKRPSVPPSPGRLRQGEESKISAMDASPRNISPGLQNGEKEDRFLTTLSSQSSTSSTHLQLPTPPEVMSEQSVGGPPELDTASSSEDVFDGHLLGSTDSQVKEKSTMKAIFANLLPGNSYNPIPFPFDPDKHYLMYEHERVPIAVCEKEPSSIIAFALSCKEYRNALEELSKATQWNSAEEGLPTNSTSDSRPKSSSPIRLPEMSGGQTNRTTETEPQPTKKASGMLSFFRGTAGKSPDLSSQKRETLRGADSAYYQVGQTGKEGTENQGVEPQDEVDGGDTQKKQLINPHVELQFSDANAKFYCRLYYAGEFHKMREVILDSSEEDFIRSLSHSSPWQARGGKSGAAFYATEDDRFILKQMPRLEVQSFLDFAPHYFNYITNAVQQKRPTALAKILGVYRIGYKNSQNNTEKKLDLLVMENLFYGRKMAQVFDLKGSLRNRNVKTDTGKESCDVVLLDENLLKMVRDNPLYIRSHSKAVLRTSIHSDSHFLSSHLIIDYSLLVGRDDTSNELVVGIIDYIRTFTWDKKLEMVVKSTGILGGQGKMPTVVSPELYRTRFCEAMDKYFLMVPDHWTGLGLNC

[3] = molecular target: T2, PIKfyve (Homo sapiens, UniProt Q9Y2I7); assay: NanoBRET TE Intracellular Kinase Assay, K-8 (Promega) cell-based assay; settings: HEK293 cells transfected with PIKFYVE-NanoLuc, compounds 2 hours; read-out: hPIKfyve BRET IC50
T2 construct: PIKFYVE-NanoLuc® Fusion Vector (Promega) containing a full-length PIKfyve; host or cells: HEK293
T2 sequence (Q9Y2I7 whole entry, the tested form may be a part): as the sequence (Q9Y2I7 whole entry S696N/L932S/Q995L/T998S/S1033A/Q1183K) above, with N696S, S932L, L995Q, S998T, A1033S, K1183Q counted along it
Procedure: NanoBRET™ TE Intracellular Kinase Assay, K-8 (Promega) Cell-Based Assay. Intracellular inhibition of PIKfyve was assayed using Promega's NanoBRET™ TE Intracellular Kinase Assay, K-8 according to manufacturer's instructions. A dilution series of test compounds was added for 2 hours to HEK293 cells transfected for a minimum of 20 hours with PIKFYVE-NanoLuc® Fusion Vector (Promega) containing a full-length PIKfyve according to manufacturer's specifications in a 96-well plate. Kinase activity was detected by addition of a NanoBRET™ tracer reagent, which was a proprietary PIKfyve inhibitor appended to a fluorescent probe (BRET, bioluminescence resonance energy transfer). Test compounds were tested at concentrations of 10, 3, 1, 0.3, 0.1, 0.03, 0.01, 0.003 μM. BRET signals were measured by a GloMax® Discover Multimode Microplate Reader (Promega) using 0.3 sec/well integration time, 450BP donor filter and 600LP acceptor filters. Active test compounds that bound PIKfyve and displaced the tracer reduced BRET signal. IC50 values were then calculated by fitting the data to the normalized BRET ratio.

[4] = tested on: FAB1 TDP-43 yeast strain; assay: Propidium iodide viability assay in FAB1 TDP-43 control yeast strain; format: cell-based; settings: across a range of compound concentrations (FIG. 5, 0.23 μM shown)
Procedure: Generation of TDP-43 yeast model expressing human PIKfyve. Human PIKFYVE (“entry clone”) was cloned into pAG416GPDccdB (“destination vector”) according to standard Gateway cloning protocols (Invitrogen, Life Technologies). The resulting pAG416GPD-PIKFYVE plasmids were amplified in E. coli and plasmid identity confirmed by restriction digest and Sanger sequencing. […]
Transformed yeast were plated on solid agar plates with complete synthetic media lacking uracil (CSM-ura) and containing 2% glucose. […] Multiple independent isolates were further evaluated for cytotoxicity and TDP-43 expression levels.
Viability Assay. A control yeast strain with the wild-type yeast FAB1 gene and TDP-43 (“FAB1 TDP-43”, carries empty pAG416 plasmid), and the “PIKFYVE TDP-43” yeast strain, were assessed for toxicity using a propidium iodide viability assay. […] Wells containing DMSO alone were also evaluated as controls for compound effects. […]
Upon the completion of incubation, cultures were assayed for viability using propidium iodide (PI) to stain for dead/dying cells. […] A benchtop flow cytometer (Miltenyi MACSquant) was then used to assess red fluorescence (B2 channel), forward scatter, and side scatter (with following settings: gentle mix, high flow rate, fast measurement, 10,000 events). […]

SMILES: Oc1cc(-c2ccccc2)nn1-c1cc(N2CCOCC2)n2nc(-c3ccncc3)nc2n1
- pIC50 [1]: 6.16

SMILES: Oc1cc(C2CCOCC2)nn1-c1cc(N2CCOCC2)n2nc(-c3ccncc3)cc2n1
- pIC50 [1]: 5.04

SMILES: c1ccc(-c2ccnc(-c3cc(N4CCOCC4)nc(OCc4ccncc4)n3)n2)cc1
- pIC50 [1]: 5.84

SMILES: Cc1cccc(/C=N/Nc2cc(N3CCOCC3)nc(OCCc3ccc(CN)cc3)n2)c1
- pIC50 [1]: 5.95

SMILES: c1ccc(-c2cccc(-c3cc(N4CCOCC4)n4nc(-c5ccncc5)cc4n3)n2)cc1
- pIC50 [1]: 6.64

SMILES: c1ccc(-c2ccn(-c3nc(N4CCOCC4)c4ncccc4n3)n2)nc1 [Compound 12, 4-(2-(3-(pyridin-2-yl)-1H-pyrazol-1-yl)pyrido[3,2-d]pyrimidin-4-yl)morpholine]
- pIC50 [2]: 6.00 to 7.00
- pIC50 [3]: 5.00 to 6.00

SMILES: Cc1cccc(/C=N/Nc2cc(N3CCOCC3)n3nc(-c4ccncc4)cc3n2)c1 [APY0201, reference compound]
- viable cells in FAB1 TDP-43 [4]: no increase in viable cells
- propidium iodide-positive dead cells in PIKFYVE TDP-43 model ([1]; 0.23 μM (FIG. 6)): reduced the population of propidium iodide-positive dead cells
- concentrations that afforded increased viability ([1]; PIKFYVE TDP-43 model): 0.5 mM to less than 100 nM

SMILES: Oc1cc(-c2ccccc2)nn1-c1nc(N2CCOCC2)c2ncccc2n1 [Compound 71, 1-(4-morpholinopyrido[3,2-d]pyrimidin-2-yl)-3-phenyl-1H-pyrazol-5-ol]
- pIC50 [3]: < 5.00

SMILES: Cc1cccc(/C=N/Nc2nc(N3CCOCC3)c3nc(-c4ccncc4)n(C)c3n2)c1
- pIC50 [1]: 5.33

SMILES: c1ccc(N2CCc3c(OCc4cccnc4)nc(N4CCOCC4)nc32)cc1
- pIC50 [1]: 5.57

SMILES: Cc1cccc(/C=N/Nc2nc(N3CCOCC3)c3ncccc3n2)c1
- pIC50 [1]: 5.09

SMILES: Fc1cccc(-c2ccnn2-c2nc(N3CCOCC3)c3ncccc3n2)c1
- pIC50 [1]: 5.24
